Assay results published in US8420654B2 (Eli Lilly and Company, priority 2008, dated 2013).

Assays:
[1] = molecular target: T1, rCB-1 (Rattus norvegicus, UniProt P20272); test: rCB1-CHO antagonist mode SPA GTP-γ-35S binding assay; format: biochemical; settings: rat CB-1 CHO membranes, antagonist mode vs methanandamide; read-out: rCB-1 SPA GTPγS CHO Membrane Antagonist Kb
T1 construct: purchased Applied Cell Sciences, Rockville, Md; host or cells: CHO cells (membranes)
Procedure: (§1) Compounds of the present invention may be tested for functional activity at the CB-1 and CB-2 receptors in both agonist and antagonist modes using SPA (Scintillation Proximity Assay) based GTP-γ-^35S binding assays. All assay components are prepared in assay buffer (20 mM HEPES, 100 mM NaCl, 5 mM MgCl2, pH 7.4) at room temperature. Semi-log dilutions of test compound are prepared in assay buffer containing BSA (0.125% final conc.) for the agonist mode assays. For the antagonist mode assays, test compounds are prepared in the same manner but also include an 80% efficacious dose of a full agonist (methanandamide). GTP-γ^35S binding for the antagonist assay may be measured in a 96 well format using a modification of an antibody capture technique previously described. (DeLapp, N W, et al. (1999) J Pharmacol Exp Ther 289:946-955.) The CB-2 receptor agonist activity may be measured using a similar method using hCB2-Sf9 membranes. The CB-1 receptor agonist activity may be measured using a whole membrane capture technique using hCB1-CHO membranes. All incubations are done at room temperature.
(§2) hCB1-CHO and rCB1-CHO Antagonist Assays:
hCB1-CHO or rCB1-CHO membranes (Applied Cell Sciences, Rockville, Md.) and GDP (1 μM final) are added to ice cold assay buffer and homogenized. […] Plates are then centrifuged at 700×g for 10 min. and the radioactivity counted.
Data are analyzed as follows: Background is subtracted from all wells. […] Percent antagonist inhibition is calculated by first normalizing the data to the signal generated by a saturating concentration of the full agonist (methanandamide). Then the data are analyzed using a 4-parameter logistic reduced fit (Activity Base™ and XLFit3™ from IDBS, Emeryville, Calif.). Kb values are determined using a modification of the Cheng-Prusoff relationship: Kb=IC50/(1+[agonist]/EC50), where “IC50” is determined from a four parameter fit of displacement curves, “[agonist]” is the agonist challenge concentration (nM), and “EC50” is determined from a four parameter fit of a full agonist concentration response curve (Cheng and Prusoff 1973). […]

[2] = molecular target: T2, hCB-1 (Homo sapiens, UniProt P21554); test: hCB1-CHO agonist mode SPA GTP-γ-35S binding assay; format: biochemical; settings: for hCB-1 SPA GTPγS CHO Membrane Agonist % Relative Efficacy: normalized to full agonist methanandamide, below zero = inverse agonist
T2 construct: purchased Applied Cell Sciences, Rockville, Md; host or cells: CHO cells (membranes)
Procedure: as §1
hCB1-CHO membrane, GDP (1 μM final conc.), and saponin (10 ng/mL final conc., Sigma, St Louis, Mo.) are combined and prepared on ice as for the antagonist assays, above. Diluted test compounds, GTP-γ-^35S (500 nM final conc.) and membranes are combined in the assay plate and incubated for 30 min. Then 1 mg/well Wheatgerm Agglutinin SPA beads (GE Healthcare, Piscataway, N.J.) are added, plates are sealed and vortexed and incubate for 1 hr. before spinning and counting in the same fashion as for the antagonist assays, above.
(§3) Data are analyzed as follows: Background is subtracted from all wells. Percent agonist efficacy is determine by normalizing agonist/inverse agonist dose response data to the response obtained for a full agonist (methanandamide). Percent antagonist inhibition is calculated by first normalizing the data to the signal generated by a saturating concentration of the full agonist (methanandamide). Then the data are analyzed using a 4-parameter logistic reduced fit (Activity Base™ and XLFit3™ from IDBS, Emeryville, Calif.). Kb values are determined using a modification of the Cheng-Prusoff relationship: Kb=IC50/(1+[agonist]/EC50), where “IC50” is determined from a four parameter fit of displacement curves, “[agonist]” is the agonist challenge concentration (nM), and “EC50” is determined from a four parameter fit of a full agonist concentration response curve (Cheng and Prusoff 1973). Mean Kb values are calculated as a mean of at least three independent determinations±standard error of the mean (SEM). (Cheng Y C and Prusoff W H. (1973), Biochem Pharmacol 22:3099-3108.) Exemplified compounds are found to be potent CB-1 inverse agonists (Kb≦10 nM, typically <2 nM) and to be selective over the CB-2 receptor (Kb CB-2/Kb CB-1>500, typically >1000).

[3] = molecular target: T2, hCB-1; test: hCB1-CHO antagonist mode SPA GTP-γ-35S binding assay; format: biochemical; settings: human CB-1 CHO membranes, antagonist mode vs methanandamide; read-out: hCB-1 SPA GTPγS CHO Membrane Antagonist Kb
Procedure: as §1, §2
hCB1-CHO or rCB1-CHO membranes (Applied Cell Sciences, Rockville, Md.) and GDP (1 μM final) are added to ice cold assay buffer and homogenized. Diluted compounds, GTP-γ-^35S (500 nM final conc.) and membranes are added to wells of an assay plate and incubated for 30 min. at room temperature. Next, a mixture containing Nonidet P40 detergent (0.2% final conc.), rabbit polyclonal IgG Gαi-3 antibody (provided by Covance, Princeton, N.J.), and 1.25 mg anti-rabbit antibody scintillation proximity assay beads (GE Healthcare, Piscataway, N.J.) is added. The plates are sealed, vortexed, and incubated for an additional 2 hr. Plates are then centrifuged at 700×g for 10 min. and the radioactivity counted.
Data are analyzed as follows: Background is subtracted from all wells. […] Percent antagonist inhibition is calculated by first normalizing the data to the signal generated by a saturating concentration of the full agonist (methanandamide). Then the data are analyzed using a 4-parameter logistic reduced fit (Activity Base™ and XLFit3™ from IDBS, Emeryville, Calif.). Kb values are determined using a modification of the Cheng-Prusoff relationship: Kb=IC50/(1+[agonist]/EC50), where “IC50” is determined from a four parameter fit of displacement curves, “[agonist]” is the agonist challenge concentration (nM), and “EC50” is determined from a four parameter fit of a full agonist concentration response curve (Cheng and Prusoff 1973). Mean Kb values are calculated as a mean of at least three independent determinations±standard error of the mean (SEM). […]

[4] = molecular target: T3, hCB-2 (Homo sapiens, UniProt P34972); test: hCB2-Sf9 agonist mode SPA GTP-γ-35S binding assay; format: biochemical; settings: human CB-2 Sf9 membranes, read-out: hCB-2 SPA GTPγS Sf9 Membrane Agonist Relative EC50
T3 construct: purchased Perkin Elmer, Boston, Mass; host or cells: Sf9 insect cells (membranes)
Procedure: as §1
The hCB2-5f9 assay is run essentially as for the hCB1-sf9 and hCB2-sf9 antagonist assays above, with no challenging agonist added. 1 μM (final conc.) GDP is added to the membrane solution and nonidet P40, anti-Gi-antibody, and SPA bead are added together in a cocktail.
as §3

[5] = molecular target: T4, CYP2C9 (Homo sapiens, UniProt P11712); test: Human CYP fingerprinting, sulfaphenazole inhibitor; format: in vitro ADME; settings: 4 μM, human liver microsomes, 30 min, sulfaphenazole 5 μM
T4 construct: pooled, mixed gender, human liver microsomes; from tissue; host or cells: pooled, mixed gender human liver microsomes
Procedure: (§4) CYP fingerprinting is well established technique and is used as an indication of potential risk of drug-drug interactions in the pharmaceutical sciences. Compounds of the present invention may be assayed by well known methods, essentially as follows: Compounds are incubated at 37° C. at a final concentration of 4 μM with pooled, mixed gender, human liver microsomes and 1 mM NADPH ([…]) (final conc.) for 0 and 30 min. without any CYP inhibitor and with each CYP inhibitor in separate incubations for 30 min. Each inhibitor is specific for an individual cytochrome P450. The specific inhibitors used for CYPs 2C9, 2D6 and 3A were sulfaphenazole, quinidine and ketoconazole, respectively. Ketoconazole (CYP3A) is made up at 25 mM in DMSO and then diluted in buffer to a final concetration of 10 μM. Quinidine (CYP2D6) is made up at 5 mM in 50/50 acetonitrile/water and then diluted in buffer to a final concetration of 10 μM. Sulfaphenazole (CYP2C9) is made up at 100 mM in DMSO and then diluted in buffer to a final concetration of 5 μM. Samples are analyzed by LC-MS in positive or negative electrospray mode using a Waters Acquity Ultra Performance LC coupled to a MicroMass Q-T of-2 mass spectrometer.
(§5) Data are analyzed using MetaboLynx™ version 4.1. With inhibitor present, a reduction in metabolite peak area of less than 30% (relative to the uninhibited control incubation) receives a designation of low risk of Drug Drug Interaction (DDI), a reduction in peak area between 30% and 70% receives a moderate risk of DDI and a reduction of more than 70% receives a high risk of DDI.

[6] = molecular target: T3, hCB-2; test: hCB2-Sf9 antagonist mode SPA GTP-γ-35S binding assay; format: biochemical; settings: human CB-2 Sf9 membranes, antagonist mode vs methanandamide; read-out: hCB-2 SPA GTPγS Sf9 Membrane Antagonist Kb
Procedure: as §1
hCB1-Sf9 and hCB2-Sf9 antagonist Assays:
hCB1-5f9 and hCB2-5f9 membranes (Perkin Elmer, Boston, Mass.) are prepared essentially as above with 1 μM (final conc.) GDP for hCB1-5f9 and 0.05 μM (final conc.) GDP for hCB2-5f9. The assay is run essentially as described for the CHO membranes above. Diluted membranes are pre-incubated with test compound for 15 min., which is followed by addition of GTP-γ-^35S and a further 35 min. incubation. Nonidet P40 and anti-Gi-antibody are added sequentially with a 15 min. incubation after each addition. The SPA beads are then added, the plates are sealed and vortexed, and then incubated at room temperature for 1 hr.
Data are analyzed as follows: Background is subtracted from all wells. Percent agonist efficacy is determine by normalizing agonist/inverse agonist dose response data to the response obtained for a full agonist (methanandamide). Percent antagonist inhibition is calculated by first normalizing the data to the signal generated by a saturating concentration of the full agonist (methanandamide). Then the data are analyzed using a 4-parameter logistic reduced fit (Activity Base™ and XLFit3™ from IDBS, Emeryville, Calif.). Kb values are determined using a modification of the Cheng-Prusoff relationship: Kb=IC50/(1+[agonist]/EC50), where “IC50” is determined from a four parameter fit of displacement curves, “[agonist]” is the agonist challenge concentration (nM), and “EC50” is determined from a four parameter fit of a full agonist concentration response curve (Cheng and Prusoff 1973). Mean Kb values are calculated as a mean of at least three independent determinations±standard error of the mean (SEM). […]

[7] = molecular target: T5, CYP2D6 (Homo sapiens, UniProt P10635); test: Human CYP fingerprinting, quinidine inhibitor; format: in vitro ADME; settings: 4 μM, human liver microsomes, 30 min, quinidine 10 μM
T5 construct: pooled, mixed gender, human liver microsomes; from tissue; host or cells: pooled, mixed gender human liver microsomes
Procedure: as §4, §5

[8] = test system: CYP3A; test: Human CYP fingerprinting, ketoconazole inhibitor; format: in vitro ADME; settings: 4 μM, human liver microsomes, 30 min, ketoconazole 10 μM
Procedure: as §4, §5

T3 sequence (P34972 whole entry): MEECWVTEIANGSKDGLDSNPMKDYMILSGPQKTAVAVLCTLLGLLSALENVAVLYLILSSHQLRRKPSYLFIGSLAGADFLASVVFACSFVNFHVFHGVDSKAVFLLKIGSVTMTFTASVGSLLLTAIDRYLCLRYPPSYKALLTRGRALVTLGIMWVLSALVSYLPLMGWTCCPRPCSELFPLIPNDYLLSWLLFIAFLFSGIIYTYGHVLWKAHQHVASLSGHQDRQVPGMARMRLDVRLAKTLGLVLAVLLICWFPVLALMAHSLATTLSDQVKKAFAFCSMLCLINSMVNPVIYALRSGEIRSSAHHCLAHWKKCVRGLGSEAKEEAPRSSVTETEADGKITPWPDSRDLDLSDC
T2 sequence (P21554 whole entry): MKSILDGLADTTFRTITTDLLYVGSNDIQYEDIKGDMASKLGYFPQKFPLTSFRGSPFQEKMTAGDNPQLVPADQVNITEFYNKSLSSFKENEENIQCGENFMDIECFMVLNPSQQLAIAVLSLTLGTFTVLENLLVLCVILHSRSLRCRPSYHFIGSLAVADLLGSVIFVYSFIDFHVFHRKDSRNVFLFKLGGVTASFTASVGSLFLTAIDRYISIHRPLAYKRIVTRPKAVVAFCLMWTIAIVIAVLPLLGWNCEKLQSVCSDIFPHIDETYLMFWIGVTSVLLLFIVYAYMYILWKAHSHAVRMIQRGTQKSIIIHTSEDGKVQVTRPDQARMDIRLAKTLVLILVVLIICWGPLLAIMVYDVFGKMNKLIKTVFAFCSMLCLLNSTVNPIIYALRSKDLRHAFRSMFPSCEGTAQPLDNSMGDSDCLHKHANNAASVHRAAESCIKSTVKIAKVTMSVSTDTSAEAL
T5 sequence (P10635 whole entry): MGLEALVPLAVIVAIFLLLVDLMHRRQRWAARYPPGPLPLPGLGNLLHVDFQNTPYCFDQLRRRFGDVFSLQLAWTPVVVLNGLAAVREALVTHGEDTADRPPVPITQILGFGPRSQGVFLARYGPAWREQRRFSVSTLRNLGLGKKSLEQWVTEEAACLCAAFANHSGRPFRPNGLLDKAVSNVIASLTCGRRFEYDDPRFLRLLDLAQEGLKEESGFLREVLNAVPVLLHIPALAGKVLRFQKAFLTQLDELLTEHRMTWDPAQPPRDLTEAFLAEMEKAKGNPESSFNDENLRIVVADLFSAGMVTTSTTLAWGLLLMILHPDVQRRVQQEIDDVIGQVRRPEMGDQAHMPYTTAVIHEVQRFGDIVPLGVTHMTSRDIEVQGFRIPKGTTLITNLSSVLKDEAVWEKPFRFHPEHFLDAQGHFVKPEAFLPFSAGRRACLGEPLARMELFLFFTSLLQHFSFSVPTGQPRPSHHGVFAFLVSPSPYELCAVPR
T4 sequence (P11712 whole entry): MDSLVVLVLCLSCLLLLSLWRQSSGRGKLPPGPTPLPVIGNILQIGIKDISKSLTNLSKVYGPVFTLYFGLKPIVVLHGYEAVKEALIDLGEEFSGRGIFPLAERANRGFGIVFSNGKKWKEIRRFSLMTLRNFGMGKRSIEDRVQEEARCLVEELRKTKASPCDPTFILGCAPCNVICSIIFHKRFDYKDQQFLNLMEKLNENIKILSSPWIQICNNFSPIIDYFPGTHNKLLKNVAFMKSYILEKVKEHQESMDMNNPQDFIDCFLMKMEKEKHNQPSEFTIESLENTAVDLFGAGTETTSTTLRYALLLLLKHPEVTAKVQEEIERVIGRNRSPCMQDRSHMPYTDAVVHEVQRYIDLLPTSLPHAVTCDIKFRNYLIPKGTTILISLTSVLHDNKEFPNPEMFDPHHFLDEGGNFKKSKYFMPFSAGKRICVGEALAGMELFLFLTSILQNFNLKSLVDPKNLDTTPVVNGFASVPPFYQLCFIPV
T1 sequence (P20272 whole entry): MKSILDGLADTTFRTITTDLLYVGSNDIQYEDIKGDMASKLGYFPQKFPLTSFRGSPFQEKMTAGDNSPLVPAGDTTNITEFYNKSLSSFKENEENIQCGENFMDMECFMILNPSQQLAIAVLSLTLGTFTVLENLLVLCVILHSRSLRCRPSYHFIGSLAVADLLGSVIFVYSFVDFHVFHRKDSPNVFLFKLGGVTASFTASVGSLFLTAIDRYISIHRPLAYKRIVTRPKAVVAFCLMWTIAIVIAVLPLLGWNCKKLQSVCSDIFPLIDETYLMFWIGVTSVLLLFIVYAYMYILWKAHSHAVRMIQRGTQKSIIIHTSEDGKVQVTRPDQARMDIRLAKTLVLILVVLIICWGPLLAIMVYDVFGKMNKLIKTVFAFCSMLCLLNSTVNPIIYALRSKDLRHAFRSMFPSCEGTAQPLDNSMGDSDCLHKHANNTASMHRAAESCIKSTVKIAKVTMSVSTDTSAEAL

Row | EC50 ([2]; human CB-1 CHO membranes, agonist mode (inverse agonism), read-out: hCB-1 SPA GTPγS CHO Membrane Agonist Relative EC50 inverse) | Compound | Kb [1] | hCB-1 SPA GTPγS CHO Membrane Agonist % Relative Efficacy [2] | Kb [3] | EC50 [4] | Risk of Drug Drug Interaction (DDI) CYP2C9 [5] | Kb [6] | Risk of Drug Drug Interaction (DDI) CYP2D6 [7] | Risk of Drug Drug Interaction (DDI) CYP3A [8]
1 |  | CC(C)(N[C@@H]1C[C@H](c2cccc(OC(F)(F)F)c2)N(c2ccc(C(F)(F)F)cc2)C1=O)c1ccnc(C(F)(F)F)n1 [Example 1, (3R,5R)-3-[1-Methyl-1-(2-trifluoromethyl-pyrimidin-4-yl)-ethylamino]-5-(3-trifluoromethoxy-phenyl)-1-(4-trifluoromethyl-phenyl)-pyrrolidin-2-one] | 0.177 nM | −99.3% | 0.895 nM | > 8710 nM | low (a reduction in metabolite peak area of less than 30% (relative to the uninhibited control incubation) receives a designation of low risk of Drug Drug Interaction (DDI)) | > 8710 nM |  | 
2 | 2.52 nM | CC(C)(N[C@@H]1C[C@H](c2ccccc2)N(c2ccc(OC(F)(F)F)cc2)C1=O)c1ccnc(C(F)(F)F)n1 [Example 4] | 0.176 nM | −105% | 0.83 nM | 288 nM | low (a reduction in metabolite peak area of less than 30% (relative to the uninhibited control incubation) receives a designation of low risk of Drug Drug Interaction (DDI)) | 288 nM | low (a reduction in metabolite peak area of less than 30% (relative to the uninhibited control incubation) receives a designation of low risk of Drug Drug Interaction (DDI)) | low (a reduction in metabolite peak area of less than 30% (relative to the uninhibited control incubation) receives a designation of low risk of Drug Drug Interaction (DDI))
3 |  | CC(C)(N[C@@H]1C[C@H](c2cccc(OC(F)(F)F)c2)N(c2ccc(C(F)(F)F)cc2)C1=O)c1ccnc(C(F)(F)F)n1 [Example 6, (3R,5R)-3-[1-Methyl-1-(2-trifluoromethyl-pyrimidin-4-yl)-ethylamino]-5-(3-trifluoromethoxy-phenyl)-1-(4-trifluoromethyl-phenyl)-pyrrolidin-2-one adipate] |  |  |  |  |  |  | low (a reduction in metabolite peak area of less than 30% (relative to the uninhibited control incubation) receives a designation of low risk of Drug Drug Interaction (DDI)) | low (a reduction in metabolite peak area of less than 30% (relative to the uninhibited control incubation) receives a designation of low risk of Drug Drug Interaction (DDI))
